We go through 28 compounds from EP1247803A2, “Indolinone compounds suitable for modulation of protein kinases” (Sugen, Inc., priority 1996, dated 1998).

The target of one test is T1, FLK-1 receptor (Mus musculus, UniProt P35918).
T1 construct: expressed in transfected cells; host or cells: NIH3T3 C7#3
The experiment in a line: FLK-1 ELISA (kinase activity of the FLK-1 receptor in FLK-1/NIH3T3 cells, VEGF stimulated). In kind it is cell-based. In a few lines:
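An ELISA using affinity-purified rabbit anti-FLK-1 antiserum on anti-rabbit IgG-coated plates measured VEGF-stimulated FLK-1 kinase activity. NIH3T3 C7#3 cells carrying FLK-1 were serum-starved (0.1% FBS) overnight, then exposed to compound (final 1:200 dilution, 0.5% DMSO) for two hours at 37 °C.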
On the technique in general: An ELISA detects its analyte on a solid surface through an enzyme-linked reagent.

In the next test the target is PDGF-R (Homo sapiens, UniProt P09619). The experiment in a line: PDGF-R ELISA. It is filed as cell-based. From the text: A PDGF-R ELISA is described in International Patent Publication No. WO 96/40116, published December 19, 1996 by Tang et al.
PDGF-R, sequence (P09619 33-1106, species assumed): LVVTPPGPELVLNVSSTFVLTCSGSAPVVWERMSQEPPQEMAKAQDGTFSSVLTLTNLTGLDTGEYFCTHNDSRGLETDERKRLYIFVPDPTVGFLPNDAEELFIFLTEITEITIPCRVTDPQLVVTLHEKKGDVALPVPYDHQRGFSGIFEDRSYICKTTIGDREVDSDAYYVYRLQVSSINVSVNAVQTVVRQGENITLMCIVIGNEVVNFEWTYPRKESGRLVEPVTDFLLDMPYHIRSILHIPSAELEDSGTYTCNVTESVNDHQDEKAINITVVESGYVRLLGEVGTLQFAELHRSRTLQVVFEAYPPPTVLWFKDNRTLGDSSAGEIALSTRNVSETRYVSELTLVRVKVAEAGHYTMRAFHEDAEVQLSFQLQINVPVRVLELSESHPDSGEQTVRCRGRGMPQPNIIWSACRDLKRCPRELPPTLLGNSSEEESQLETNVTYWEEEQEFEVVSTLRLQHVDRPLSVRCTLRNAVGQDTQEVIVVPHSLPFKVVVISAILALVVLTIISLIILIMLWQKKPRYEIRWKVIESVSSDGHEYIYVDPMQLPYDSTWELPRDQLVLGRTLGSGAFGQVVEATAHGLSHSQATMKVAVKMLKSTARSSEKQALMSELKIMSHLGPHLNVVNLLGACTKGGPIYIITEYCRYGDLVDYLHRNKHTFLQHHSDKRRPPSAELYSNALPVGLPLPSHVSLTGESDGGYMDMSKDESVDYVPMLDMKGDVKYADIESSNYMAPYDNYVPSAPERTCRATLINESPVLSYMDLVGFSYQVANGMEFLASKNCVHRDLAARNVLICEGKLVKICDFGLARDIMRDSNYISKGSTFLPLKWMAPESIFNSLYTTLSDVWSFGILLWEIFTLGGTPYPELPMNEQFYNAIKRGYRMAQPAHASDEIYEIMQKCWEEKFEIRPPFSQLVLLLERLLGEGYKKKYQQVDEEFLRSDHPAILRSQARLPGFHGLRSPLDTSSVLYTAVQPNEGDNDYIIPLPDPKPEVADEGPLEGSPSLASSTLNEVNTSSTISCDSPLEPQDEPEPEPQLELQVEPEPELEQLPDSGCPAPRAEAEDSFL

T1 sequence (P35918 20-1345): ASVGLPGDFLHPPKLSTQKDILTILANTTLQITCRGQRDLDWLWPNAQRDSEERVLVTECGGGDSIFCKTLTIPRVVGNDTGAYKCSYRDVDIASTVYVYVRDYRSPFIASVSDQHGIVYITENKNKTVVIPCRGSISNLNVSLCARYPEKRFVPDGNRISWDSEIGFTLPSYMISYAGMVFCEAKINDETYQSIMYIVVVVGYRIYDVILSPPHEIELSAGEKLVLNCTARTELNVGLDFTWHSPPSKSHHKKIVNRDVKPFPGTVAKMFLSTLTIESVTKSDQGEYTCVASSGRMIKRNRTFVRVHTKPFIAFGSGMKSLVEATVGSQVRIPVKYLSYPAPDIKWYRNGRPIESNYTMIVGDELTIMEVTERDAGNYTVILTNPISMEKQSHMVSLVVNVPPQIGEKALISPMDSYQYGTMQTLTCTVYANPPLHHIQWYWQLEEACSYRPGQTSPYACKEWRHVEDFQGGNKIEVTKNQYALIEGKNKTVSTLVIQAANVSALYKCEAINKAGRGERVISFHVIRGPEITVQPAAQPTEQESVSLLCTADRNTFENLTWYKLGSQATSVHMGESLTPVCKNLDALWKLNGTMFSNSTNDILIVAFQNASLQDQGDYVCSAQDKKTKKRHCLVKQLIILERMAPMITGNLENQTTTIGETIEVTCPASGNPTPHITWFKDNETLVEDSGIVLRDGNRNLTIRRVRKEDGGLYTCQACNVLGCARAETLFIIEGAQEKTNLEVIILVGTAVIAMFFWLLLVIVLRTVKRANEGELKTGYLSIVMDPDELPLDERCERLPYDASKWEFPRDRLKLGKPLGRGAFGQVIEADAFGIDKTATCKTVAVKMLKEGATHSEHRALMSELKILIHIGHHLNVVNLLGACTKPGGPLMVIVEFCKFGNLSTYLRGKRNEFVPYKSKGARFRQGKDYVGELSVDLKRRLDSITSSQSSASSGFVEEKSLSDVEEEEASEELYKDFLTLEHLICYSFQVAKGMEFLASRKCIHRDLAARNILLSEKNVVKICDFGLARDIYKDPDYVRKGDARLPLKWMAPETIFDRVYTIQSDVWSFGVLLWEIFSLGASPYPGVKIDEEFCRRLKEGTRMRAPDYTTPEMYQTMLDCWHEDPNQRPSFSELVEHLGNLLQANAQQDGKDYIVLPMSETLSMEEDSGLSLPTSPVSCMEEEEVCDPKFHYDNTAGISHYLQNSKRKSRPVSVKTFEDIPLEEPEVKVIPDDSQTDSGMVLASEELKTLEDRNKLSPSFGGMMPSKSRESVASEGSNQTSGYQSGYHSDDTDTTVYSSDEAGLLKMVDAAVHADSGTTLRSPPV

For `O=C1Nc2c(Br)cc(Br)cc2C1=Cc1cc(C(F)(F)F)ccc1F` [10728/A08], on FLK-1 receptor, the “Fik Kinase %Inhibition” value was -1.4%. At PDGF-R, the “PDGF Kinase %Inhibition” value is listed as 0.5%.

In the case of `O=C1Nc2c(Br)cc(Br)cc2C1=Cc1c(F)cccc1C(F)(F)F` [10728/A09], the “Fik Kinase %Inhibition” value on FLK-1 receptor is given as -5.5%. Moreover, at PDGF-R, the “PDGF Kinase %Inhibition” value is 10.3%.

Regarding `O=C(O)COc1ccccc1C=C1C(=O)Nc2c(Br)cc(Br)cc21` [10728/A10], at FLK-1 receptor, the “Fik Kinase %Inhibition” value was -16.3%. For the same compound, the “PDGF Kinase %Inhibition” value on PDGF-R is given as 1.8%.

Consider `COc1cc(C=C2C(=O)Nc3c(Br)cc(Br)cc32)cc2c1OCO2` [10728/A11], for which, at FLK-1 receptor, the “Fik Kinase %Inhibition” value is recorded as -2.3%. For the same compound, the “PDGF Kinase %Inhibition” value at PDGF-R is on record as -9.3%.

With `COc1ccc(OC)c(C=C2C(=O)Nc3ccc(I)cc32)c1` [10728/B02], at FLK-1 receptor, the “Fik Kinase %Inhibition” value is -11.1%. At PDGF-R, the “PDGF Kinase %Inhibition” value is reported as -0.4%.

Turning to `COc1cccc(OC)c1C=C1C(=O)Nc2ccc(I)cc21` [10728/B03], the “Fik Kinase %Inhibition” value on FLK-1 receptor is -1.3%. Moreover, the “PDGF Kinase %Inhibition” value at PDGF-R was 10.3%.

For `COc1cc(C=C2C(=O)Nc3ccc(I)cc32)cc(OC)c1` [10728/B04], the “Fik Kinase %Inhibition” value at FLK-1 receptor is -6.0%. Further, the “PDGF Kinase %Inhibition” value at PDGF-R is recorded as 9.8%.

As for `COc1cc(N(C)C)ccc1C=C1C(=O)Nc2ccc(I)cc21` [10728/B05], at FLK-1 receptor, the “Fik Kinase %Inhibition” value was -12.3%. Also, the “PDGF Kinase %Inhibition” value on PDGF-R stood at 9.4%.

As for `O=C1Nc2ccc(I)cc2C1=Cc1cccc(C(F)(F)F)c1F` [10728/B07], the “Fik Kinase %Inhibition” value at FLK-1 receptor stood at 31.4%. In addition, the “PDGF Kinase %Inhibition” value at PDGF-R was 20.9%.

In the case of `O=C1Nc2ccc(I)cc2C1=Cc1cc(C(F)(F)F)ccc1F` [10728/B08], on FLK-1 receptor, the “Fik Kinase %Inhibition” value is listed as 14.8%. For the same compound, the “PDGF Kinase %Inhibition” value at PDGF-R is -6.6%.

Take `O=C1Nc2ccc(I)cc2C1=Cc1c(F)cccc1C(F)(F)F` [10728/B09]: the “Fik Kinase %Inhibition” value on FLK-1 receptor came out at 1.7%. At PDGF-R, the “PDGF Kinase %Inhibition” value is listed as -0.4%.

Consider `O=C(O)COc1ccccc1C=C1C(=O)Nc2ccc(I)cc21` [10728/B10], for which, on FLK-1 receptor, the “Fik Kinase %Inhibition” value came to 3.9%. Moreover, the “PDGF Kinase %Inhibition” value on PDGF-R came to 2.7%.

Consider `COc1cc(C=C2C(=O)Nc3ccc(I)cc32)cc2c1OCO2` [10728/B11], for which, at FLK-1 receptor, the “Fik Kinase %Inhibition” value was -1.0%. For the same compound, the “PDGF Kinase %Inhibition” value at PDGF-R is on record as -12.4%.

On to `COc1ccc(OC)c(C=C2C(=O)Nc3ccc(Br)c(C)c32)c1` [10728/C02], for which the “Fik Kinase %Inhibition” value on FLK-1 receptor is reported as -32.1%. Further, at PDGF-R, the “PDGF Kinase %Inhibition” value was 42.3%.

On to `COc1cccc(OC)c1C=C1C(=O)Nc2ccc(Br)c(C)c21` [10728/C03], for which the “Fik Kinase %Inhibition” value at FLK-1 receptor is on record as 10.5%. Also, the “PDGF Kinase %Inhibition” value on PDGF-R is 24.9%.

Regarding `COc1cc(C=C2C(=O)Nc3ccc(Br)c(C)c32)cc(OC)c1` [10728/C04], the “Fik Kinase %Inhibition” value at FLK-1 receptor is -0.0%. In addition, the “PDGF Kinase %Inhibition” value at PDGF-R was 27.2%.

Regarding `COc1cc(N(C)C)ccc1C=C1C(=O)Nc2ccc(Br)c(C)c21` [10728/C05], the “Fik Kinase %Inhibition” value on FLK-1 receptor was -21.7%. Also, the “PDGF Kinase %Inhibition” value on PDGF-R turned out to be 23.2%.

Consider `Cc1c(Br)ccc2c1C(=Cc1ccc3c(c1)Cc1ccccc1-3)C(=O)N2` [10728/C06], for which the “Fik Kinase %Inhibition” value on FLK-1 receptor is listed as 8.4%. On PDGF-R, the “PDGF Kinase %Inhibition” value is recorded as 2.7%.

With `Cc1c(Br)ccc2c1C(=Cc1cccc(C(F)(F)F)c1F)C(=O)N2` [10728/C07], the “Fik Kinase %Inhibition” value at FLK-1 receptor is recorded as -7.2%. The “PDGF Kinase %Inhibition” value at PDGF-R was 8.9%.

As for `Cc1c(Br)ccc2c1C(=Cc1cc(C(F)(F)F)ccc1F)C(=O)N2` [10728/C08], the “Fik Kinase %Inhibition” value at FLK-1 receptor is given as -2.2%. For the same compound, the “PDGF Kinase %Inhibition” value on PDGF-R turned out to be 9.4%.

As to `Cc1c(Br)ccc2c1C(=Cc1c(F)cccc1C(F)(F)F)C(=O)N2` [10728/C09], the “Fik Kinase %Inhibition” value on FLK-1 receptor was found to be 14.5%. Also, the “PDGF Kinase %Inhibition” value on PDGF-R is given as 8.1%.

Turning to `Cc1c(Br)ccc2c1C(=Cc1ccccc1OCC(=O)O)C(=O)N2` [10728/C10], the “Fik Kinase %Inhibition” value at FLK-1 receptor was found to be 6.1%. For the same compound, on PDGF-R, the “PDGF Kinase %Inhibition” value is 11.2%.

With `COc1cc(C=C2C(=O)Nc3ccc(Br)c(C)c32)cc2c1OCO2` [10728/C11], at FLK-1 receptor, the “Fik Kinase %Inhibition” value was -10.1%. Also, the “PDGF Kinase %Inhibition” value at PDGF-R worked out at 8.5%.

As for `CNS(=O)(=O)c1ccc2c(c1)C(=Cc1cc(OC)ccc1OC)C(=O)N2` [10728/D02], the “Fik Kinase %Inhibition” value at FLK-1 receptor is -0.3%. Also, at PDGF-R, the “PDGF Kinase %Inhibition” value is reported as 9.8%.

On to `CNS(=O)(=O)c1ccc2c(c1)C(=Cc1c(OC)cccc1OC)C(=O)N2` [10728/D03], for which the “Fik Kinase %Inhibition” value on FLK-1 receptor is on record as 10.2%. In addition, the “PDGF Kinase %Inhibition” value at PDGF-R is listed as 32.0%.

In the case of `CNS(=O)(=O)c1ccc2c(c1)C(=Cc1cc(OC)cc(OC)c1)C(=O)N2` [10728/D04], the “Fik Kinase %Inhibition” value at FLK-1 receptor is 6.8%. For the same compound, at PDGF-R, the “PDGF Kinase %Inhibition” value stood at 26.7%.

On to `CNS(=O)(=O)c1ccc2c(c1)C(=Cc1ccc(N(C)C)cc1OC)C(=O)N2` [10728/D05], for which the “Fik Kinase %Inhibition” value on FLK-1 receptor is listed as 4.9%. Also, the “PDGF Kinase %Inhibition” value on PDGF-R is reported as 7.2%.

In the case of `CNS(=O)(=O)c1ccc2c(c1)C(=Cc1ccc3c(c1)Cc1ccccc1-3)C(=O)N2` [10728/D06], on FLK-1 receptor, the “Fik Kinase %Inhibition” value is given as 10.4%. For the same compound, the “PDGF Kinase %Inhibition” value on PDGF-R was 5.8%.
